According to article PMC10784415 (Developmental dynamics : an official publication of the …, 2023):

Assay: Toxicokinetics of infigratinib in juvenile rat plasma after oral gavage
Assay type: in vivo, Crl:WI(Han) rat
Settings: for RAUC: AUC vs first dosing day; for AUC(0-t) / Cmax / half-life / Tmax: Crl:WI(Han), rat, plasma, po
[1] = Female rats, 0.1 mg/kg/day oral, PND 7
[2] = Female rats, 0.1 mg/kg/day oral, PND 12
[3] = Female rats, 0.1 mg/kg/day oral, PND 17
[4] = Female rats, 0.1 mg/kg/day oral, PND 23
[5] = Female rats, 0.1 mg/kg/day oral, PND 35
[6] = Female rats, 0.3 mg/kg/day oral, PND 7
[7] = Female rats, 0.3 mg/kg/day oral, PND 12
[8] = Female rats, 0.3 mg/kg/day oral, PND 17
[9] = Female rats, 0.3 mg/kg/day oral, PND 23
[10] = Female rats, 0.3 mg/kg/day oral, PND 35
[11] = Female rats, 1.0 mg/kg/day oral, PND 7
[12] = Female rats, 1.0 mg/kg/day oral, PND 12
[13] = Female rats, 1.0 mg/kg/day oral, PND 17
[14] = Female rats, 1.0 mg/kg/day oral, PND 23
[15] = Female rats, 1.0 mg/kg/day oral, PND 35
[16] = Male rats, 0.1 mg/kg/day oral, PND 7
[17] = Male rats, 0.1 mg/kg/day oral, PND 12
[18] = Male rats, 0.1 mg/kg/day oral, PND 17
[19] = Male rats, 0.1 mg/kg/day oral, PND 23
[20] = Male rats, 0.1 mg/kg/day oral, PND 35
[21] = Male rats, 0.3 mg/kg/day oral, PND 7
[22] = Male rats, 0.3 mg/kg/day oral, PND 12
[23] = Male rats, 0.3 mg/kg/day oral, PND 17
[24] = Male rats, 0.3 mg/kg/day oral, PND 23
[25] = Male rats, 0.3 mg/kg/day oral, PND 35
[26] = Male rats, 1.0 mg/kg/day oral, PND 7
[27] = Male rats, 1.0 mg/kg/day oral, PND 12
[28] = Male rats, 1.0 mg/kg/day oral, PND 17
[29] = Male rats, 1.0 mg/kg/day oral, PND 23
[30] = Male rats, 1.0 mg/kg/day oral, PND 35
[31] = female, 0.1 mg/kg/day, Female rats, 0.1 mg/kg/day oral, PND 7
[32] = female, 0.1 mg/kg/day, Female rats, 0.1 mg/kg/day oral, PND 12
[33] = female, 0.1 mg/kg/day, Female rats, 0.1 mg/kg/day oral, PND 23
[34] = female, 0.1 mg/kg/day, Female rats, 0.1 mg/kg/day oral, PND 35
[35] = female, 0.3 mg/kg/day, Female rats, 0.3 mg/kg/day oral, PND 7
[36] = female, 0.3 mg/kg/day, Female rats, 0.3 mg/kg/day oral, PND 12
[37] = female, 0.3 mg/kg/day, Female rats, 0.3 mg/kg/day oral, PND 23
[38] = female, 0.3 mg/kg/day, Female rats, 0.3 mg/kg/day oral, PND 35
[39] = female, 1 mg/kg/day, Female rats, 1.0 mg/kg/day oral, PND 7
[40] = female, 1 mg/kg/day, Female rats, 1.0 mg/kg/day oral, PND 12
[41] = female, 1 mg/kg/day, Female rats, 1.0 mg/kg/day oral, PND 23
[42] = female, 1 mg/kg/day, Female rats, 1.0 mg/kg/day oral, PND 35
[43] = male, 0.1 mg/kg/day, Male rats, 0.1 mg/kg/day oral, PND 7
[44] = male, 0.1 mg/kg/day, Male rats, 0.1 mg/kg/day oral, PND 12
[45] = male, 0.1 mg/kg/day, Male rats, 0.1 mg/kg/day oral, PND 23
[46] = male, 0.1 mg/kg/day, Male rats, 0.1 mg/kg/day oral, PND 35
[47] = male, 0.3 mg/kg/day, Male rats, 0.3 mg/kg/day oral, PND 7
[48] = male, 0.3 mg/kg/day, Male rats, 0.3 mg/kg/day oral, PND 12
[49] = male, 0.3 mg/kg/day, Male rats, 0.3 mg/kg/day oral, PND 23
[50] = male, 0.3 mg/kg/day, Male rats, 0.3 mg/kg/day oral, PND 35
[51] = male, 1 mg/kg/day, Male rats, 1.0 mg/kg/day oral, PND 7
[52] = male, 1 mg/kg/day, Male rats, 1.0 mg/kg/day oral, PND 12
[53] = male, 1 mg/kg/day, Male rats, 1.0 mg/kg/day oral, PND 23
[54] = male, 1 mg/kg/day, Male rats, 1.0 mg/kg/day oral, PND 35

CCN1CCN(c2ccc(Nc3cc(N(C)C(=O)Nc4c(Cl)c(OC)cc(OC)c4Cl)ncn3)cc2)CC1 [infigratinib, 3-(2,6-Dichloro-3,5-dimethoxy-phenyl)-1-{6-[4-(4-ethyl-piperazin-1-yl)-phenylamino]-pyrimidin-4-yl}-1-methyl-urea]
Cmax/D [1]: 41.8 (ng/mL)/(mg/kg/day) | Tlast [1]: 24 h | Cmax/D [2]: 34.0 (ng/mL)/(mg/kg/day) | Tlast [2]: 24 h | RAUC [2]: 0.941 ratio | Cmax/D [3]: 90.6 (ng/mL)/(mg/kg/day) | Tlast [3]: 24 h | RAUC [3]: 0.839 ratio | Cmax/D [4]: 7.8 (ng/mL)/(mg/kg/day) | Tlast [4]: 12 h | RAUC [4]: 0.108 ratio | Cmax/D [5]: 3.0 (ng/mL)/(mg/kg/day) | Tlast [5]: 7 h | RAUC [5]: 0.0325 ratio | Cmax/D [6]: 64.7 (ng/mL)/(mg/kg/day) | Tlast [6]: 24 h | Cmax/D [7]: 49.7 (ng/mL)/(mg/kg/day) | Tlast [7]: 24 h | RAUC [7]: 0.751 ratio | Cmax/D [8]: 60.2 (ng/mL)/(mg/kg/day) | Tlast [8]: 24 h | RAUC [8]: 0.548 ratio | Cmax/D [9]: 7.49 (ng/mL)/(mg/kg/day) | Tlast [9]: 24 h | RAUC [9]: 0.103 ratio | Cmax/D [10]: 2.2 (ng/mL)/(mg/kg/day) | Tlast [10]: 12 h | RAUC [10]: 0.0249 ratio | Cmax/D [11]: 53.2 (ng/mL)/(mg/kg/day) | Tlast [11]: 24 h | Cmax/D [12]: 56.6 (ng/mL)/(mg/kg/day) | Tlast [12]: 24 h | RAUC [12]: 1.15 ratio | Cmax/D [13]: 41.2 (ng/mL)/(mg/kg/day) | Tlast [13]: 24 h | RAUC [13]: 0.974 ratio | Cmax/D [14]: 10.4 (ng/mL)/(mg/kg/day) | Tlast [14]: 24 h | RAUC [14]: 0.141 ratio | Cmax/D [15]: 4.04 (ng/mL)/(mg/kg/day) | Tlast [15]: 12 h | RAUC [15]: 0.0566 ratio | Cmax/D [16]: 32.1 (ng/mL)/(mg/kg/day) | Tlast [16]: 24 h | Cmax/D [17]: 33.2 (ng/mL)/(mg/kg/day) | Tlast [17]: 24 h | RAUC [17]: 1.24 ratio | Cmax/D [18]: 29.9 (ng/mL)/(mg/kg/day) | Tlast [18]: 24 h | RAUC [18]: 0.882 ratio | Cmax/D [19]: 5.77 (ng/mL)/(mg/kg/day) | Tlast [19]: 12 h | RAUC [19]: 0.12 ratio | Cmax/D [20]: 3.07 (ng/mL)/(mg/kg/day) | Tlast [20]: 12 h | RAUC [20]: 0.0613 ratio | Cmax/D [21]: 38.8 (ng/mL)/(mg/kg/day) | Tlast [21]: 24 h | Cmax/D [22]: 47.1 (ng/mL)/(mg/kg/day) | Tlast [22]: 24 h | RAUC [22]: 1.3 ratio | Cmax/D [23]: 27.1 (ng/mL)/(mg/kg/day) | Tlast [23]: 24 h | RAUC [23]: 0.898 ratio | Cmax/D [24]: 7.1 (ng/mL)/(mg/kg/day) | Tlast [24]: 24 h | RAUC [24]: 0.187 ratio | Cmax/D [25]: 3.08 (ng/mL)/(mg/kg/day) | Tlast [25]: 12 h | RAUC [25]: 0.0524 ratio | Cmax/D [26]: 37.3 (ng/mL)/(mg/kg/day) | Tlast [26]: 24 h | Cmax/D [27]: 68.8 (ng/mL)/(mg/kg/day) | Tlast [27]: 24 h | RAUC [27]: 1.59 ratio | Cmax/D [28]: 34.1 (ng/mL)/(mg/kg/day) | Tlast [28]: 24 h | RAUC [28]: 0.944 ratio | Cmax/D [29]: 11.2 (ng/mL)/(mg/kg/day) | Tlast [29]: 24 h | RAUC [29]: 0.233 ratio | Cmax/D [30]: 2.98 (ng/mL)/(mg/kg/day) | Tlast [30]: 12 h | RAUC [30]: 0.0648 ratio | AUC(0-t) [31]: 43 ng·h/mL | AUC(0-t) [32]: 40.5 ng·h/mL | AUC(0-t) [33]: 4.66 ng·h/mL | AUC(0-t) [34]: 1.4 ng·h/mL | Cmax [31]: 4.18 ng/mL | Cmax [32]: 3.4 ng/mL | Cmax [33]: 0.78 ng/mL | Cmax [34]: 0.3 ng/mL | half-life (female, 0.1 mg/kg/day, T1/2, Female rats, 0.1 mg/kg/day oral, PND 7): 4.7 h | half-life (female, 0.1 mg/kg/day, T1/2, Female rats, 0.1 mg/kg/day oral, PND 12): 5.66 h | Tmax [31]: 3 h | Tmax [32]: 3 h | Tmax [33]: 3 h | Tmax [34]: 1 h | AUC(0-t) [35]: 183 ng·h/mL | AUC(0-t) [36]: 137 ng·h/mL | AUC(0-t) [37]: 18.8 ng·h/mL | AUC(0-t) [38]: 4.54 ng·h/mL | Cmax [35]: 19.4 ng/mL | Cmax [36]: 14.9 ng/mL | Cmax [37]: 2.25 ng/mL | Cmax [38]: 0.66 ng/mL | half-life (female, 0.3 mg/kg/day, T1/2, Female rats, 0.3 mg/kg/day oral, PND 7): 4.26 h | half-life (female, 0.3 mg/kg/day, T1/2, Female rats, 0.3 mg/kg/day oral, PND 12): 3.82 h | half-life (female, 0.3 mg/kg/day, T1/2, Female rats, 0.3 mg/kg/day oral, PND 23): 4.53 h | Tmax [35]: 3 h | Tmax [36]: 3 h | Tmax [37]: 3 h | Tmax [38]: 3 h | AUC(0-t) [39]: 516 ng·h/mL | AUC(0-t) [40]: 593 ng·h/mL | AUC(0-t) [41]: 73 ng·h/mL | Cmax [39]: 53.2 ng/mL | Cmax [40]: 56.6 ng/mL | Cmax [41]: 10.4 ng/mL | Cmax [42]: 4.04 ng/mL | half-life (female, 1 mg/kg/day, T1/2, Female rats, 1.0 mg/kg/day oral, PND 7): 5.23 h | half-life (female, 1 mg/kg/day, T1/2, Female rats, 1.0 mg/kg/day oral, PND 12): 3.97 h | half-life (female, 1 mg/kg/day, T1/2, Female rats, 1.0 mg/kg/day oral, PND 23): 3.25 h | half-life (female, 1 mg/kg/day, T1/2, Female rats, 1.0 mg/kg/day oral, PND 35): 2.51 h | Tmax [39]: 3 h | Tmax [40]: 1 h | Tmax [41]: 1 h | Tmax [42]: 1 h | AUC(0-t) [43]: 31.9 ng·h/mL | AUC(0-t) [44]: 39.4 ng·h/mL | AUC(0-t) [45]: 3.81 ng·h/mL | AUC(0-t) [46]: 1.95 ng·h/mL | Cmax [43]: 3.21 ng/mL | Cmax [44]: 3.32 ng/mL | Cmax [45]: 0.577 ng/mL | Cmax [46]: 0.307 ng/mL | half-life (male, 0.1 mg/kg/day, T1/2, Male rats, 0.1 mg/kg/day oral, PND 7): 5.1 h | half-life (male, 0.1 mg/kg/day, T1/2, Male rats, 0.1 mg/kg/day oral, PND 12): 6.34 h | half-life (male, 0.1 mg/kg/day, T1/2, Male rats, 0.1 mg/kg/day oral, PND 35): 2.2 h | Tmax [43]: 3 h | Tmax [44]: 3 h | Tmax [45]: 3 h | Tmax [46]: 1 h | AUC(0-t) [47]: 114 ng·h/mL | AUC(0-t) [48]: 149 ng·h/mL | AUC(0-t) [49]: 21.5 ng·h/mL | AUC(0-t) [50]: 6 ng·h/mL | Cmax [47]: 11.6 ng/mL | Cmax [48]: 14.1 ng/mL | Cmax [49]: 2.13 ng/mL | Cmax [50]: 0.924 ng/mL | half-life (male, 0.3 mg/kg/day, T1/2, Male rats, 0.3 mg/kg/day oral, PND 7): 5.58 h | half-life (male, 0.3 mg/kg/day, T1/2, Male rats, 0.3 mg/kg/day oral, PND 12): 3.75 h | half-life (male, 0.3 mg/kg/day, T1/2, Male rats, 0.3 mg/kg/day oral, PND 23): 4.37 h | Tmax [47]: 3 h | Tmax [48]: 3 h | Tmax [49]: 3 h | Tmax [50]: 3 h | AUC(0-t) [51]: 375 ng·h/mL | AUC(0-t) [52]: 596 ng·h/mL | AUC(0-t) [53]: 87.2 ng·h/mL | AUC(0-t) [54]: 24.3 ng·h/mL | Cmax [51]: 37.3 ng/mL | Cmax [52]: 68.8 ng/mL | Cmax [53]: 11.2 ng/mL | Cmax [54]: 2.98 ng/mL | half-life (male, 1 mg/kg/day, T1/2, Male rats, 1.0 mg/kg/day oral, PND 12): 3.33 h | half-life (male, 1 mg/kg/day, T1/2, Male rats, 1.0 mg/kg/day oral, PND 23): 3.64 h | Tmax [51]: 7 h | Tmax [52]: 3 h | Tmax [53]: 3 h | Tmax [54]: 3 h
